According to article PMC7599001, “The SNAP-tag technology revised: an effective chemo-enzymatic approach by using a universal azide-based substrate” (Journal of Enzyme Inhibition and Medicinal Chemistry, 2020):
Where two headings read alike, the source gives them in different places.

Experiments:
SsOGT-H^5 [1] = molecular target: T1, SsOGT-H^5 (Saccharolobus solfataricus, UniProt Q97VW7, G105K/K110E/M106T/R102A/S100A/S132E); assay: AGTs' substrate assay by competitive inhibition method with SVG (gel-imaging); assay type: biochemical
T1 construct: His6-tag; made in house; host or cells: E. coli ABLE C
T1 sequence (Q97VW7 whole entry S100A/R102A/G105K/M106T/K110E/S132E): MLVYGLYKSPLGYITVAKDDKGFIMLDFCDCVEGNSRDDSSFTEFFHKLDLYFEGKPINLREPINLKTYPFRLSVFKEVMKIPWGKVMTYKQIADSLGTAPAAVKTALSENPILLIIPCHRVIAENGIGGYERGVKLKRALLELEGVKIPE
Method: Competitive inhibition assay was performed as described[23]^,[38]. Briefly, by using a fixed concentration of the fluorescent SVG (5 µM) and enzymes (5 µM), an increasing amount of guanine-derivatives (0–2 mM) was added to the mixtures. […] Subsequently, fluorescent bands were measured by gel-imaging on a VersaDoc 4000™ system (Bio-Rad), by applying a blue LED/530 bandpass filter. Obtained data were finally plotted by Equation (1), (1) RF=100%/1+([I]/IC50)^[S] where RF is the obtained Relative Fluorescence, [I] and [S] are the concentration of the inhibitor and the substrate, respectively, and finally the IC50 is the concentration needed to reduce by 50% the fluorescence intensity of the protein band.
(§1) We evaluated the activity of SNAP-tag® and H^5 enzymes on BGN3 and BGSN3 by the afore-mentioned IC50 method (Figure S5(A,B)) and other O^6-guanine-derivatives (Table 1).
(§2) Because most of them are non-fluorescent compounds, we performed an AGTs’ competitive inhibition assay by using the fluorescein-derivative SNAP-Vista® Green as substrate (SVG), as previously described[22–24]^,[45]. Briefly, the reaction of an AGT with SVG led to a fluoresceinated protein, which can be visualised as a fluorescent band in gel-imaging analysis after SDS-PAGE. The presence of increasing amounts of a non-fluorescent competitor in the reaction causes a decrease of the fluorescent signals, which can be measured and plotted for the IC50 values determination[23]^,[46].

SNAP-tag® [2] = molecular target: T2, SNAP-tag® (Homo sapiens, UniProt P16455, A127T/C150S/C62A/G131K/G132T/K125A/M134L/N157G/R128A/R135S/S159E); assay: as above; assay type: biochemical; details: for IC50: SVG 5 µM, enzyme 5 µM, 30 min at 25 °C
T2 sequence (P16455 1-182 C62A/K125A/A127T/R128A/G131K/G132T/M134L/R135S/C150S/N157G/S159E): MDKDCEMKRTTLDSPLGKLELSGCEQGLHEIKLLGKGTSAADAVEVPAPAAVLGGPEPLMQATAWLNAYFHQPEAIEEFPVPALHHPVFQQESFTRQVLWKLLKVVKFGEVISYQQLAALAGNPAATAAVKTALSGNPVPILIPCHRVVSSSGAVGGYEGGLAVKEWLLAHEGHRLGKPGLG
Method: Competitive inhibition assay was performed as described[23]^,[38]. Briefly, by using a fixed concentration of the fluorescent SVG (5 µM) and enzymes (5 µM), an increasing amount of guanine-derivatives (0–2 mM) was added to the mixtures. The reactions were incubated for 30 min at 25 °C and 50 °C for SNAP-tag® and H^5 respectively, and loaded on SDS-PAGE. Subsequently, fluorescent bands were measured by gel-imaging on a VersaDoc 4000™ system (Bio-Rad), by applying a blue LED/530 bandpass filter. Obtained data were finally plotted by Equation (1), (1) RF=100%/1+([I]/IC50)^[S] where RF is the obtained Relative Fluorescence, [I] and [S] are the concentration of the inhibitor and the substrate, respectively, and finally the IC50 is the concentration needed to reduce by 50% the fluorescence intensity of the protein band.
as §1, §2

[3] = tested on: HEK293T cells transfected with SNAP-tag® plasmid; assay: Permeability of eukaryotic cells to BGSN3 (lysates then incubated with SVG, gel-imaging); assay type: cell-based
Method: HEK293T cells were maintained at 37 °C with 5% CO2 in Dulbecco’s Modified Essential Medium (Invitrogen, Carlsbad, CA) supplemented with 10% Foetal Bovine Serum (FBS) (Invitrogen) and 100 U/ml Penicillin/Streptomycin (Roche, Switzerland). HEK293T cells were transfected with SNAP-tag® plasmid by using Lipofectamine 2000 (Invitrogen) following manufacturer’s protocol. The treatment with BGSN3 were performed, at the concentration and time indicated for each experiment. Twenty-four hours after transfection, we treated cells with BGSN3 for 2 h at different concentrations ranging (from 1 to 25 µM), directly dissolving the compound in complete culture medium. Then cells were harvested, washed with PBS 1× buffer and lysed with 50 mM Tris-HCl pH 7.4, 150 mM NaCl, 0.5 mM EDTA, 0.1% Triton X-100 supplemented with complete protease (Roche, Switzerland) and phosphatase (SERVA Electrophoresis, Germany) inhibitors. Afterwards, transfected cells were treated with a fixed concentration of BGSN3 (10 µM) at different time points (from 30 to 120 min). Again, HEK293T cells were washed and lysed as described before. […] Subsequently, proteins were loaded on SDS-PAGE and analysed by gel-imaging on a VersaDoc 4000™ system (Bio-Rad), by applying a blue LED/530 bandpass filter (Figure 6).

SNAP-tag® [4] = molecular target: T2, SNAP-tag®; set-up: method as in PMID 18291317, PMID 26499124; details: 25 °C; obtained by using a BG-fluorescein substrate (BG-FL) very similar to SVG; cited from earlier work
SsOGT-H^5 [5] = molecular target: T1, SsOGT-H^5; details: cited from earlier work
[6] = SVG 5 µM, enzyme 5 µM, 30 min at 50 °C, read-out: IC50

Row | Molecule | IC50 (SsOGT-H^5 [1]; [6]) | IC50 (SNAP-tag® [2]) | further results
1 | Nc1nc(OCc2ccccc2)c2nc[nH]c2n1 [BG, O^6-benzyl-guanine] | 10.1 ± 1 µM |  | 
2 | [N-]=[N+]=NCc1ccc(COc2nc(N)nc3nc[nH]c23)cc1 [BGN3, O^6-BG-N3] | 23.5 ± 1 µM | 15.6 ± 0.3 µM | 
3 | [N-]=[N+]=NCCCC(=O)NCc1ccc(COc2nc(N)nc3[nH]cnc23)cc1 [BGSN3, N-(4-(((2-amino-9H-purin-6-yl)oxy)methyl)benzyl)-4-azidobutanamide] |  | 17.8 ± 1.1 µM | IC50 (SsOGT-H^5 [1]): 10 ± 0.7 µM; concentration for internalisation (absence of SVG signal) ([3]; 2 h treatment in culture medium): < 5 µM; time of internalisation ([3]; BGSN3 10 µM in culture medium): ca. 30 min
4 | BG-PEG-NH2 [BGPA] | 14.3 ± 1.9 µM | 86 ± 6.7 µM | 
5 | SNAP Cell^® 430 [SC430] |  |  | competition with SVG (SNAP-tag® [2]; competitive inhibition assay): completely lost the competition with SVG; competition with SVG (SsOGT-H^5 [1]; competitive inhibition assay): completely lost the competition with SVG
6 | SNAP Cell^® Block [SCB] | 4.4 ± 0.8 µM | 2.1 ± 0.5 µM | 
7 | SNAP-Vista^® Green [SVG] |  |  | k (second order rate constant of the enzymatic reaction) (SNAP-tag® [4]): 2.8 × 10^4 b s^−1 M^−1; k (second order rate constant of the enzymatic reaction) (SsOGT-H^5 [5]): 16000 M⁻¹ s⁻¹
8 | methyl-guanine-PEG-NH2 [MGPA] |  |  | IC50 (SsOGT-H^5 [1]; competitive assay for H^5 performed at 65 °C, read-out: IC50): 269 ± 19.1 µM
